Data reported in US20210284617A1, “Synthesis of (S)-2-Amino-4-Methyl-((R)-2-Methyloxirane-2-Yl)-Pentan-1-One and Pharmaceutically Acceptable Salts Thereof” (Amgen Inc., priority 2016, published 2021).
Converted amounts (≈) assume the structure as drawn.

Columns and labels:
[1] = Solubility of compound in organic solvents (crystallization development); assay type: physicochemical; conditions: for solubility in organic solvents (in words): isolation/crystallization context
Text: Importantly, the intermediate synthesis of compound 3a allowed for the development of a crystallization process capable of purging upstream impurities and eliminating the requirement for column chromatography at step 1 or 2. […] Alternatively, a ternary system of three (3) solvents, such as acetonitrile/water/acetic acid will also work to isolate compound 3a. Further, the epoxidation step 3 in scheme 3 using the Mn-y76t catalyst of the present invention followed by crystallization with IPA/water worked well to not only to purge the diasteromer impurity but also to purge upstream process impurities.

[2] = Storage stability of the step 2 product, concentrated or in ACN/MTBE solution; assay type: physicochemical; conditions: for time stable in solution: 2-10 V of ACN or MTBE
Text: Appropriate quenching of the Grignard process is important to ensure product quality and to eliminate racemization. A Grignard adduct impurity resulting from double-addition of the Grignard reagent was detected by LCMS at ˜2 LCAP during inverse addition of the reaction mixture to a mixture of MTBE (5 V) and 25% citric acid aqueous solution (10 V). An increase in the level of the double-addition by-product (up to 11 LCAP) was observed when quenching the reaction mixture into citric acid solution (in the absence of MTBE) with an associated decrease in product yield by >35%. The excess Grignard could react with product of step 2 that was hydrolyzed after work-up leading to the formation of the impurity. Of note, the impurities of double-addition, morpholine-adduct and dimers could not be detected by HPLC due to their relatively low response factors, but could be detected by LCMS and TLC (EtOAc/heptane 1:4, Nihydrin). Thus, it is important to carefully control the amount of Grignard reagents used and to carefully quench the reaction upon completion. Racemization of step 2 product was not observed during the course of optimization of the Grignard process or during the inverse quenching step. The concentrated product with BHT was stable at ambient temperature for one month; BHT in this sample originated from the solvent (250 ppm in stabilized THF) used in the Grignard process. The solution containing the product of step 2 in 2-10 V of ACN or MTBE was stable at room temperature or 5° C. for at least 4 days or 18 hours at 35° C., which was required to optimize the solvent switch to ACN for the step 3 epoxidation.

## CC(C)C[C@H](NC(=O)OC(C)(C)C)C(=O)[C@@]1(C)CO1 [compound 4a, tert-butyl ((S)-4-methyl-1-((R)-2-methyloxiran-2-yl)-1-oxopentan-2-yl)carbamate]
[1]; organic solvent or mixture, n-hexane at −20° C.
  solubility: ~34 mg/mL (≈ 125 mM)
[1]
  solubility in organic solvents (in words): high solubility in most all organic solvents

## CC(C)C[C@@H](NC(=O)OC(C)(C)C)C(=O)[C@@]1(C)CO1 [compound 3a, tert-butyl ((R)-4-methyl-1-((R)-2-methyloxiran-2-yl)-1-oxopentan-2-yl)carbamate]
[1]
  solubility in organic solvents (in words): improved solubility profile

## C=C(C)C(=O)[C@@H](CC(C)C)NC(=O)OC(C)(C)C [compound 2a, (R)-tert-butyl (2,6-dimethyl-3-oxohept-1-en-4-yl)carbamate]
[2]; 35° C.
  time stable in solution: 18 h
[2]; room temperature or 5° C.
  time stable in solution: at least 4 days
[2]; concentrated product with BHT, ambient temperature
  time stable as concentrated product: one month
